Here are results for six compounds from patent US20150237857A1, “ANTIBACTERIAL INHIBITORS” (MCMASTER UNIVERSITY, priority 2012, published 2015).

The structures appear in SMILES notation. In brackets after ≈: the same amount, converted by molar mass. Entries after “also recorded” stand apart in the source; their conditions may differ. Like-named read-outs stand apart in the source and are kept apart here.

Data set [1] deals with T1, recombinant PabA, PabB and PabC (Escherichia coli, UniProt P00903+P05041+P28305).
T1 construct: poly-histidine (pDEST17) (N); made in house; host or cells: E. coli BL21AI (pDEST17, arabinose induction)
T1 sequence (P00903 whole entry): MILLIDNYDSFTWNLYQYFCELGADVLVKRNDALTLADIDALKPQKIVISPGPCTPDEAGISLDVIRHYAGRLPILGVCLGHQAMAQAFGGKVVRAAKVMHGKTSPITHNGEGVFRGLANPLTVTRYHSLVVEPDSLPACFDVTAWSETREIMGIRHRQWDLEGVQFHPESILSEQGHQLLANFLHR
T1 sequence (P05041 whole entry): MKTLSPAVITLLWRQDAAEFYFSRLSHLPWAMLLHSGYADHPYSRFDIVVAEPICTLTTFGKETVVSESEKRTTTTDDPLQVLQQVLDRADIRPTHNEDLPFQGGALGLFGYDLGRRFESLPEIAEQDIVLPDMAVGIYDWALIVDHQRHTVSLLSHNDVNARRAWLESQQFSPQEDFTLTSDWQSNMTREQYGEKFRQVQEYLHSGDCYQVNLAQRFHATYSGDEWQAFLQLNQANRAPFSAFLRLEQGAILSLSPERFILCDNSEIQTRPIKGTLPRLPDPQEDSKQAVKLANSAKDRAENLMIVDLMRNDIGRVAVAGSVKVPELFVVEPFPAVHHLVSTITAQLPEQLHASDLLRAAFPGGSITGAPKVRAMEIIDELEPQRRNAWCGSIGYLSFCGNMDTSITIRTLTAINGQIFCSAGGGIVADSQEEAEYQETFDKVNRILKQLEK
T1 sequence (P28305 whole entry): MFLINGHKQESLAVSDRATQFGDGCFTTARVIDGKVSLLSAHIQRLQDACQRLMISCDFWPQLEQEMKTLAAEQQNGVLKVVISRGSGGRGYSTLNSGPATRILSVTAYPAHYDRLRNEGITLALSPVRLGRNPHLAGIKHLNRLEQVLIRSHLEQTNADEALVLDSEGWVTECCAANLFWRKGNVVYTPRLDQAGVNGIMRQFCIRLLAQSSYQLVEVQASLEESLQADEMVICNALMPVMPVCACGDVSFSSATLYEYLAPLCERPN
In words: biochemical. Also on record: species or system E. coli. How it is done:
Enzyme assays were conducted in triplicate at room temperature with 25 nM of PabA and PabB, 50 nM of PabC, 50 mM Tris-HCl (pH 7.5), 20 μM PLP, 1 mM L-glutamine, 40 μM chorismate and the indicated concentrations of MAC-173979. The inhibition assays were initiated by addition of a mixture of the three enzymes and quenched with an equal volume of freshly prepared 8M urea. The reaction progress curves were monitored every 10 minutes for 60 minutes and determined by a stopped HPLC-assay that allowed for the quantification of the conversion of chorismate to PABA. The two compounds were separated on a C18 reverse phase column (Nova-Pak C18, 4 μm, 3.9×150 mm, Waters) and eluted isocratically with 5% acetic acid in double distilled H2O. The analytes were visualized by UV absorbance at 275 nm and identified by comparing their retention times and UV absorption spectra to authentic standards. The progress curves were plotted to the rate equation of slow-binding inhibition: […]
using Sigma Plot 12.0 (SPSS, Inc., Chicago, Ill.), where v0 and vs are the initial and final steady-state reaction velocities, respectively, t is the time and kobs is the apparent first order rate constant for the interconversion between the initial and steady-state rates.
In order to directly test the biochemical activity of MAC-0173979 on PABA synthesis, an HPLC-based one-pot enzyme assay using recombinant PabA, PabB and PabC was set up and the formation of PABA was monitored by measuring its absorbance at 275 nm.
MAC173979 and an analog lacking the Michael acceptor (0-1000 μM) were each incubated with the PABA enzymes for 30 minutes prior to substrate addition. Reactions were quenched after 30 minutes with 8 M urea and analyzed by HPLC.

The test system of data set [2] is E. coli MG1655. In words: Metabolic suppression profiling (ChemArray). It counts as cell-based. The conditions noted are these: for suppression of growth inhibitory activity by p-aminobenzoic acid (PABA): PABA in growth media; for suppression of growth inhibitory activity by methionine: methionine in growth media.
Data set [3] concerns E. coli MG1655. In words: Minimum inhibitory concentration (MIC) determination. To be noted: for MIC: Escherichia coli; for effect of intermediates of biotin biosynthesis on inhibitory activity (in words): KAPA, DAPA, DTB, biotin in media; for Fold suppression: MIC with supplement / MIC without.
Protocol: The MIC values were determined in liquid minimal media and minimal media supplemented with amino acids, vitamins and nucleobases.
A single colony of E. coli MG1655 was grown overnight in 5 ml of M9 minimal media. The saturated culture was diluted 1/50 in fresh minimal media and allowed to grow until the OD600 reached ˜0.4. […] After mixing of the bacterial culture with the compounds, the OD600 of the plates was read using Envision to account for background absorbance. The plates were then incubated in a 37° C. stationary incubator for 16 hours before measuring their OD600. After subtracting any background absorbance contributed by colored or precipitated compounds, the MIC was defined as the lowest concentration of antibiotic that inhibits visible growth.
The target of data set [4] is recombinant E. coli BioA (Escherichia coli, UniProt P12995). In words: BioA inhibition through a feeding assay of a bioA auxotroph. It counts as biochemical. How it is done: To determine if the step catalyzed by BioA was the target of this inhibitor, the inhibitory activity of MAC-0013772 against recombinant E. coli BioA was assayed through a feeding assay of a bioA auxotroph.
recombinant E. coli BioA, sequence (P12995 whole entry): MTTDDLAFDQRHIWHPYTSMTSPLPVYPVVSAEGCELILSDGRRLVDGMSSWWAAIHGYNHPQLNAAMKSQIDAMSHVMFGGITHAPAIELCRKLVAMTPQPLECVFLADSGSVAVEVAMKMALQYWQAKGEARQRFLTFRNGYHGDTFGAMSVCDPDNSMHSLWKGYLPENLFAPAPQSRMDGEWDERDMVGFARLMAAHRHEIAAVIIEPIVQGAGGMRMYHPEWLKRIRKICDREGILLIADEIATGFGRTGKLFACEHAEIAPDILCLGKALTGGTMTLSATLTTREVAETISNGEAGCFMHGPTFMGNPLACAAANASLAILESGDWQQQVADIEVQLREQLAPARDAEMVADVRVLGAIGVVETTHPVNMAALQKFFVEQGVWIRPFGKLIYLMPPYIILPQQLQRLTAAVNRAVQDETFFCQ

Data set [5] concerns the target BioA (Escherichia coli, UniProt P12995). In words: UV-visible spectra of BioA titrated with inhibitor. It counts as binding, E. coli. How it is done:
To further determine if the inhibition of BioA by MAC13772 is mediated through the interaction of the hydrazine moiety in the compound with PLP in the active site of the enzyme, the UV-visible spectra of BioA was assessed when titrated with the inhibitor.

Data set [6] deals with Mycobacteria smegmatis. In words: MIC against Mycobacteria smegmatis in absence and presence of biotin. It counts as cell-based.
Data set [7] has as its system Acinetobacter baumannii. In words: Activity against other organisms. It counts as cell-based. The protocol:
(§1) The activity of MAC13772 was tested against a number of organisms in addition to Escherichia coli using methods similar to those described in Example 2.

The test system of data set [8] is Bacillus subtilis. In words: Activity against other organisms. It counts as cell-based. The protocol:
as §1

In data set [9] the test system is Klebsiella pneumonia. In words: Activity against other organisms. It counts as cell-based. The protocol:
as §1

The test system of data set [10] is Mycobacterium tuberculosis. In words: Activity against other organisms. It counts as cell-based. The protocol:
as §1

Data set [11] concerns Salmonella typhimurium. In words: Activity against other organisms. It counts as cell-based. The protocol: as §1
Data set [12] deals with Staphylococcus aureus. In words: Activity against other organisms. It counts as cell-based. How it is done: as §1
The test system of data set [13] is E. coli wild-type, ΔltaEΔtdh and ΔltaEΔtdhΔkbl strains.

BioA, sequence (P12995 whole entry): as above

For the compound `O=C(CC(Cl)Cl)c1cccc([N+](=O)[O-])c1` [analog lacking the Michael acceptor, 3,3-dichloro-1-(3-nitrophenyl)propan-1-one], the IC50 in [1] was 60 ± 7 µM.

With `N[C@@H]1CONC1=O` [D-cycloserine, reference compound], the “metabolic suppression profile: metabolites that suppress growth inhibitory activity” value in data set [2] (4× MIC in M9 minimal media, ChemArray) is on record as “suppressed by the addition of either D/L-alanine or glycine”. For the same compound, the “suppression of growth inhibitory activity by glycine” value in data set [2] (4× MIC in M9 minimal media) was “strongly suppressed”.

On to `O=C(C=C(Cl)Cl)c1cccc([N+](=O)[O-])c1` [MAC-0173979, 3,3-dichloro-1-(3-nitrophenyl)prop-2-en-1-one], for which, in [2] (4× MIC in M9 minimal media), the “suppression of growth inhibitory activity by p-aminobenzoic acid (PABA)” value was “suppressed; also recorded: fully reversed” and the “suppression of growth inhibitory activity by methionine” value was “to a certain extent; also recorded: fully reversed”. In [1], the IC50 came to 30 ± 2 µM and the Ki was 7.3 ± 1.3 µM. In data set [1] (progress curves, kobs plot), the “mechanism of inhibition of PABA synthesis” value is “irreversible time-dependent inhibitor”. The “fold suppression of MIC on addition of PABA” value in [3] (PABA added to the growth media) is recorded as 16 fold.

For the compound `NNC(=O)CSc1ccccc1[N+](=O)[O-]` [MAC13772, 2-(2-nitrophenylthio) acetohydrazide], the “suppression of growth inhibitory activity by biotin” value in data set [2] (biotin in the growth media) was “uniquely suppressed by biotin”. The IC50 in data set [4] is roughly 0.25 µM. Moreover, in data set [5] ([inhibitor]/[BioA]), the “stoichiometry of protein-ligand interaction (molar ratio plot)” value is reported as “stoichiometric”. The “λmax of PLP-bound BioA after interaction with inhibitor” value in data set [5] (shift from 420 nm (internal aldimine) to PLP-inhibitor adduct) was found to be 393 nm. For the same compound, the MIC in data set [6] (absence of biotin, read-out: MIC −bio) is 4 µg/mL; in [6] (presence of 2 nM of biotin, read-out: MIC +bio), greater than 256 µg/mL; in [3] (MG1655, read-out: MIC −bio, absence of biotin), 8 µg/mL (≈ 35.2 µM); in data set [3] (MG1655, supplement: AA + VIT + NUC), greater than 256 µg/mL; in data set [3] (MG1655, supplement: BIOTIN), greater than 256 µg/mL; in [3] (MG1655, supplement: DAPA) it was greater than 256 µg/mL. Besides, the minimal inhibitory concentration (MIC) in [3] (MG1655, supplement: DTB) is greater than 256 µg/mL; in data set [3] (MG1655, supplement: KAPA), 8 µg/mL (≈ 35.2 µM). Also, the antibacterial activity result in data set [7], in data set [8], in [9], in data set [10], in data set [11] and in data set [12] was “active” throughout. For the same compound, the “effect of intermediates of biotin biosynthesis on inhibitory activity (in words)” value in [3] (listed as MAC-0013372) was “KAPA had no effect”; in data set [3] (listed as MAC-0013772), “fully reversed by DAPA, DTB and biotin”. The Fold suppression in [3] (supplement: AA + VIT + NUC) was determined as 32; in [3] (supplement: BIOTIN), 32; in data set [3] (supplement: DAPA), 32; in data set [3] (supplement: DTB), 32; in data set [3] (supplement: KAPA) it was 1.

For `Cc1cc(NS(=O)(=O)c2ccc(N)cc2)no1` [sulfamethoxazole, reference compound], in data set [2] (4× MIC in M9 minimal media), the “suppression of growth inhibitory activity by p-aminobenzoic acid (PABA)” value is given as “fully reversed” and the “suppression of growth inhibitory activity by methionine” value was “to a certain extent”.

For the compound `COc1ccc(C(=O)CCN(C)C)cc1` [MAC-0168425, 3-(dimethylamino)-1-(4-methoxyphenyl)propan-1-one], the “suppression of growth inhibitory activity by L-serine” value in data set [2] (4× MIC in M9 minimal media, L-serine) is “not suppressed”. Further, in data set [2] (4× MIC in M9 minimal media, L-threonine), the “suppression of growth inhibitory activity by L-threonine” value was “partially suppressed”. In [2] (4× MIC in M9 minimal media), the “suppression of growth inhibitory activity by glycine” value is recorded as “strongly suppressed”. The “fold shift in MIC” value was 4-8 fold in data set [13] (wild-type strain, 40-640 μg/ml L-threonine) and 2 fold in data set [13] (ΔltaEΔtdh double deletion strain, 320-640 μg/ml L-threonine). For the same compound, the “suppression of activity by L-threonine” value in data set [13] (ΔltaEΔtdhΔkbl triple deletion mutant) is recorded as “completely lost”.

As usually defined, the IC50 is the concentration needed to halve the response being measured. One may read the Ki as the dissociation constant of the complex between target and ligand, obtained from inhibition or displacement. Broadly, the MIC is the lowest concentration that inhibits growth of the organism.
